Literature values as cited in patent US20070269386A1, “New product and use and manufacture thereof” (priority 2006, published 2007).

System: adult

SMILES: CN1CCCC1c1cccnc1 (stereo not shown) [nicotine, 3-(1-methyl-2-pyrrolidinyl)-pyridine]
- single dose that may kill an adult: Approximately 40 milligrams
